What all share (test): DTP human tumour cell line panel, 48 h
In assay [1] the test system is SNB-75 CNS.
Assay [2] has as its system MDA-MB-435.
In assay [3] the test system is SF-295 CNS.
The subject of assay [4] is OVCAR-8 ovarian.
Assay [5] has as its system NCI-H226 lung.
Assay [6] concerns EKVX NSCLC.
Assay [7] relates to NCI/ADR-RES ovarian.
For assay [8], the system named is HL-60(TB) leukemia.
The test system of assay [9] is SNB-19 CNS.
In assay [10] the test system is HOP-92 NSCLC.
The subject of assay [11] is HCT-116 colon.
The test system of assay [12] is ACHN renal.
Assay [13] relates to K-562 leukemia.
In assay [14] the test system is MDA-N.
Assay [15] relates to HS 578T breast.

“And” between values parts separate entries of the source, which are not always exact repeats. Identical values can stand only once.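 Five concentrations, 48 hours, 96-well plates. GI50: concentration for 50% inhibition of growth. TGI: concentration producing complete growth inhibition.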 A value given as a limit tells only on which side of the number the result lay.

As a reminder, the TGI is the concentration giving total growth inhibition. In general, GI50 refers to the concentration giving 50% growth inhibition.

With `O=[N+]([O-])c1cccc2nc3ccccc3c(NCCCNc3c4ccccc4nc4cccc([N+](=O)[O-])c34)c12`, the TGI in assay [1] came to 0.277 µM; in [2], 0.141 µM; in assay [3], 1.5 µM; in assay [4] it was 0.131 µM; in assay [5] it was 11.7 µM; in assay [6], 0.0975 µM. Besides, the TGI in assay [7] is 1.19 µM; in [8] it was 0.328 µM; in assay [9], 0.163 µM; in [10] it was less than 0.01 µM; in [11], less than 0.01 µM; in assay [12], 0.0135 µM.

For the molecule `NC1CC(=O)c2c1sc(Cl)c2Cl` (stereo unspecified), the TGI in assay [13], in assay [1], in assay [2], in assay [4], in [6] and in assay [14] was more than 100 µM each time. For the same molecule, the TGI in [7], in assay [8], in [9], in assay [11] and in [12] was more than 100 µM each time.

Regarding `[N-]=[N+]=NI1OC(=O)c2ccccc21`, the TGI in assay [13], in [1], in [2], in assay [15], in assay [3] and in [4] was more than 100 µM in each case. Moreover, the TGI in assay [5] was more than 100 µM; in [6] it was more than 100 µM; in assay [7] it was more than 100 µM; in [8], 84 µM; in assay [9] it was more than 100 µM; in assay [10], more than 100 µM. The TGI in assay [11] and in [12] was more than 100 µM in each case.

For the molecule `O=CNCNCCO`, the TGI in [13], in assay [1], in assay [15], in assay [4], in assay [5] and in assay [6] was more than 100 µM throughout. Further, the TGI was more than 100 µM in [7]; 72.8 µM in assay [8]; more than 100 µM in [9]; more than 100 µM in assay [10]; more than 100 µM in assay [11]; more than 100 µM in [12].

As for `CCN(CC)c1ccc2c(c1)Oc1ccc(N(CC)CC)cc1C21Oc2ccccc2-c2c1c1ccccc1n2CC` (stereo unspecified), the TGI in assay [13], in assay [1], in assay [3], in assay [4], in assay [5] and in assay [6] was more than 100 µM each time. The total growth inhibition concentration (TGI) in [8] was 11 µM; in assay [9] it was more than 100 µM; in assay [10] it was 2.12 µM; in assay [11] it was more than 100 µM; in [12], more than 100 µM.

As to `O=C(CCC1C(=O)NC(=S)NC1=O)c1ccc2ccccc2c1`, the TGI in assay [13], in [1], in assay [3], in assay [4], in [5] and in assay [6] was more than 100 µM in each case. In addition, the TGI in assay [8], in assay [9], in assay [10], in assay [11] and in assay [12] was more than 100 µM each time.

Regarding `NS(=O)(=O)c1nnc(NS(=O)(=O)C(F)(F)F)s1`, the TGI in [13], in [1], in [2], in assay [3], in assay [4] and in assay [5] was more than 100 µM each time. Also, the TGI in assay [6], in assay [7], in assay [8], in assay [9], in [10] and in assay [11] was more than 100 µM throughout. Also, the concentration for total growth inhibition (TGI) in [12] is more than 100 µM.

Turning to `COc1cc(O)c2c(=O)c(O)c(-c3ccc(O)c(OC)c3)oc2c1`, the TGI is 10.5 µM in assay [13]; more than 20.5 µM in [1]; more than 100 µM in assay [3]; more than 100 µM in [4]; more than 100 µM in [5]; more than 100 µM in assay [6]. Besides, the total growth inhibition concentration (TGI) in [14] is more than 100 µM; in [7], more than 100 µM; in assay [8], more than 23 µM; in assay [9] it was more than 100 µM; in [11], more than 100 µM.

For the molecule `CC1(C)CNCC(C)(OCc2ccccc2)C(=O)NC(C)(C)CNCC(C)(OCc2ccccc2)C(=O)N1` (stereo unspecified), the TGI in [13], in assay [1], in assay [2], in assay [15], in assay [3] and in assay [4] was more than 10 µM each time. The total growth inhibition concentration (TGI) was more than 10 µM in assay [5]; more than 10 µM in [6]; more than 10 µM in assay [14]; more than 10 µM in assay [9]; 4.8 µM in assay [10]; more than 10 µM in assay [11]. Also, in assay [12], the TGI is more than 10 µM.

As to `O=[N+]([O-])c1ccc(OC2CC3C4C=CC3C2C4)c([N+](=O)[O-])c1` (stereo unspecified), the TGI is more than 100 µM in assay [13]; 69.7 µM and > 31.6 µM in assay [1]; more than 100 µM in [2]; more than 100 µM in assay [15]; 49.9 µM and > 31.6 µM in assay [3]; more than 100 µM in [4]. The TGI is more than 100 µM in [5]; more than 100 µM in assay [6]; more than 100 µM in [7]; more than 100 µM in assay [8]; more than 100 µM in assay [9]; > 100 µM and 29.9 µM in assay [10]. The total growth inhibition concentration (TGI) in [11] and in [12] was more than 100 µM throughout. The GI50 in [1] was 34.5 µM; in assay [6], 56.5 µM and 22 µM; in [7], 76.4 µM and > 31.6 µM; in assay [8], 69.7 µM; in [11], 66.2 µM and > 31.6 µM.

Turning to `CC(=O)C1=CN=C2C(=O)N(c3ccccc3)N(C)C12C` (stereo unspecified), the TGI in assay [13], in [1], in assay [2], in assay [3], in [4] and in assay [5] was more than 100 µM each time. Also, the TGI in [6], in assay [14], in assay [7], in assay [8], in assay [9] and in assay [10] was more than 100 µM in each case. Also, the TGI in assay [11] and in assay [12] was more than 100 µM in each case.
